Test results reported in PMC9299640, “Incorporation of β‐Alanine in Cu(II) ATCUN Peptide Complexes Increases ROS Levels, DNA Cleavage and Antiproliferative Activity” (Chemistry (Weinheim an Der Bergstrasse, Germany), 2021).
pIC50: −log10 of the molar value.

Assays:
[1] = tested on: SiHa (cervical carcinoma); assay: Antiproliferative activity, sulforhodamine B (SRB) assay; type: cell-based, human
Protocol: (§1) The antiproliferative activity of selected Cu(II) ATCUN complexes was investigated towards different tumor cell lines (HCT116, NCI-H460, SiHa and SW480 cells) and expressed as the IC50 values.
(§2) Table S13. Accumulation of Cu in HCT116 cells after 24 h incubation with Cu-GGH, 1, 3, 4 and CuCl2 (70 µM) as determined by ICP-MS (n = 3), and cytotoxic activity in human cancer cell lines HCT116, NCI-H460, SiHa and SW480 expressed as the IC50 ± SD (in µM) as well as by the residual viable cells after treatment with 70 μM of the respective compound (%) as determined by the SRB assay (exposure time 72 h). accumulated Cu IC50 values […]
(§3) a – indicates no antiproliferative activity observed after treatment with the respective compound at 70 μM for 72 h.
(§4) S-12.1 Determination of IC50 values against HCT116, NCI-H460, SiHa and SW480 […]
(§5) HCT116, SW480 and NCI-H460 cells were supplied by ATCC, while SiHa cells were supplied by Dr. David Cowan, of the Ontario Cancer Institute, Canada. The cells were grown in α-MEM (Life Technologies) supplemented with 5% fetal calf serum (Moregate Biotech) at 37 °C in a humidified incubator with 5% CO2. […]
(§6) in 96-well plates and left to settle for 24 h. Compounds were added as water solutions to the plates in a series of 3-fold dilutions for 72 h before the assay was terminated by addition of 10% trichloroacetic acid (Merck Millipore) at 4 °C for 1 h. Cells were stained […]
(§7) with 0.4% sulforhodamine B (Sigma-Aldrich) in 1% acetic acid for 30 min in the dark at room temperature and then washed with 1% acetic acid to remove unbound dye. The stain was dissolved in unbuffered Tris base (10 mM, Serva) for 30 min on a plate shaker in the dark and quantified on a BioTek EL808 microplate reader at an absorbance of 490 nm with a reference wavelength of 450 nm to determine the percentage of cell-growth inhibition by determining the absorbance of each sample relative to a negative (no inhibitor) and a no-growth control (day 0). IC50 values were calculated with SigmaPlot 12.5 (Systat Software Inc.) using a three-parameter logistic sigmoidal dose−response curve between the calculated growth inhibition and the compound concentration. The presented IC50 values are the mean of at least three independent experiments, where 10 concentrations were tested in duplicate for each compound.
(§8) Ventures), by diluting with a matrix-matched solution with regard to HNO3 and Tm concentration, producing calibration standards with concentrations of 0.5, 1, 3, 5, 7, 10, […]
(§9) The measured Cu concentrations in the cell accumulation samples were in the range of 27–82 μg/L. The reported values are the means of at least three independent accumulation experiments conducted in triplicates with blank wells for each substance to account for unspecific binding of the Cu(II) complexes to the plastic of the well plates.
(§10) Accumulation values have been corrected by subtracting the average amount Cu determined in the cell-free wells.
(§11) Calibration curves for Cu were prepared with concentrations ranging from 0.5–100 µg/L. The limit of detection (LOD) was defined as 3 times the random error in the y-direction (Sy/x) of the calibration curve divided by the slope of the calibration curve. The limit of quantification (LOQ) was defined as 10 times the random error in the y-direction (Sy/x) of the calibration curve divided by the slope of the calibration curve.42 The LOD was determined for Cu as 1.8 μg/L and the LOQ was 5.95 μg/L.

[2] = tested on: SW480 (colon adenocarcinoma); assay: as above; type: cell-based, human
Protocol: as §1, §2, §3, §4, §5, §6, §7, §8, §9, §10, §11

[3] = tested on: NCI-H460 (non-small cell lung carcinoma); assay: as above; type: cell-based, human; settings: exposure 72 h, 3-fold dilutions, α-MEM + 5% fetal calf serum, 37 °C, mean ± SD of at least three independent experiments
Protocol: as §1, §2, §3, §4, §5, §6, §7, §8, §9, §10, §11

[4] = tested on: HCT116 (colorectal carcinoma); assay: as above; type: cell-based, human
Protocol: as §1, §2, §3, §4, §5, §6, §7, §8, §9, §10, §11

[5] = Detection of hydroxyl radicals (TPA) and hydrogen peroxide (PBSF) by fluorescence spectroscopy; type: biochemical; settings: 40 μM complex or CuCl2, ascH− 1 mM, MOPS 50 mM pH 7.4, TPA 0.5 mM or PBSF 25 μM, up to 3.5 h, r.t.
Protocol: To similarly confirm increased DNA cleavage as a result of enhanced ROS formation when introducing β‐Ala2 in the ATCUN motif, the ^•OH and H2O2 production was monitored. To follow the evolution of these species, the oxidation of terephthalate (TPA → HO‐TPA) by ^•OH[40] and the perhydrolysis of pentafluorobenzenesulfonyl fluorescein (PBSF) into fluorescein by H2O2 [40] were analyzed by fluorescence spectroscopy. In Figure 5, the kinetics of ^•OH and H2O2 production by complexes 1 (Gly2), 3 (β‐Ala2), 4 (β‐Ala2; Lys1/4) and CuCl2 are depicted.
Figure 5 Kinetics of ^•OH (left) and H2O2 (right) production for 1, 3, 4 and CuCl2 (40 μM) in the presence of ascH^− (1 mM) in MOPS buffer (50 mM, pH 7.4) monitored by fluorescence evolution of HO‐TPA (λ ex 320 nm, λ em=428 nm) from TPA (0.5 mM), and fluorescein (λ ex=485 nm, λ em=513 nm) from PBSF (25 μM).
S-8 Detection of hydroxyl radicals and hydrogen peroxide
For the identification of generated ROS by Cu(II) ATCUN complexes during DNA cleavage, gel electrophoresis was used for a ROS quenching experiment (Figure 4). Detection of hydroxyl radicals and hydrogen peroxide generated by metallonucleases was additionally performed by fluorescence spectroscopy.
The fluorescent dyes disodium terephthalate (TPA) and pentafluorobenzenesulfonyl fluorescein (PBSF) were used for the detection of hydroxyl radicals and hydrogen peroxide, respectively. […]

[6] = after treatment with 70 μM, 72 h
[7] = exposure 72 h, 3-fold dilutions, α-MEM + 5% fetal calf serum, 37 °C, mean of at least three independent experiments

With `[Cl][Cu][Cl]` [CuCl2, reference compound] the “residual viable cells SiHa” value [1, 6] was 93 ± 22%, the pIC50 [1, 7] was under 4.15 and the “residual viable cells SW480” value [2, 6] was “– (indicates no antiproliferative activity observed after treatment with the respective compound at 70 μM for 72 h)”. The pIC50 [2, 7] was under 4.15, the pIC50 [3] was under 4.15 and the “residual viable cells HCT116” value [4, 6] was 87 ± 6%. The pIC50 ([4]; exposure 72 h, 3-fold dilutions, α-MEM + 5% fetal calf serum, 37 °C, Cu(II):peptide 1:1.05, mean ± SD of at least three independent experiments) was under 4.15 and the “catalytic ROS generation (•OH and H2O2 production, in words)” value [5] was “highest ^•OH and H2O2 formation”.
